Source: article PMC11876671, “Investigating blood–brain barrier penetration and neurotoxicity of natural products for central nervous system drug development” (Scientific Reports, 2025)
Structures can show the parent of a compound that is named as a salt. *1 amine or outer side, *2 acyl side, *3 side chain or, on linkers, in order; H or OH if unused. Where a SMILES comes first, the peptide text is derived from it. Bridges are numbered along the chain shown (N, C = ends). [ ]: non-standard residue; d: D form. The star is where a group is joined. X1 = NC1=N[C@@H]([C@H](N[*:1])C(=O)[*:2])C[C@H](O)N1; ΔAla(Z-3-ureido) = NC(=O)N/C=C(\N)C(=O)O; β3hOrn = NCCC[C@H](N)CC(=O)*; Dap = NC[C@H](N)C(=O)O

Assay: in vitro
Settings: PAMPA, PAMPA-BBB Pe

SMILES | Papp
CC(C)(O)CC[C@@H](O)[C@](C)(O)[C@H]1CC[C@@]2(O)C3=CC(=O)[C@@H]4C[C@@H](O)[C@@H](O)C[C@]4(C)[C@H]3CC[C@]12C [COMMISTERONE] | 14 ×10⁻⁶ cm/s
CC[C@H](C)C(=O)O[C@H]1CCC=C2C=C[C@H](C)[C@H](CC[C@@H]3C[C@@H](O)CC(=O)O3)[C@H]21 [MEVASTATIN] | 14 ×10⁻⁶ cm/s
CC[C@]1(O)C[C@H]2CN(CCc3c([nH]c4ccccc34)[C@@](C(=O)OC)(c3cc4c(cc3OC)N(C)[C@H]3[C@@](O)(C(=O)OC)[C@H](OC(C)=O)[C@]5(CC)C=CCN6CC[C@]43[C@@H]65)C2)C1 [V[…]] | 21 ×10⁻⁶ cm/s

Same assay, conditions: PAMPA, PAMPA-BBB Pe(10^-6 cm/sec)

SMILES | Papp
CO[C@H]1/C=C/O[C@@]2(C)Oc3c(C)c(O)c4c(O)c(c(/C=N/N5CCN(C)CC5)c(O)c4c3C2=O)NC(=O)/C(C)=C\C=C\[C@H](C)[C@H](O)[C@@H](C)[C@@H](O)[C@@H](C)[C@H](OC(C)=O)[C@@H]1C [Rifampicin] | 3.7 ×10⁻⁶ cm/s
C[C@]12C=CC(=O)C=C1[C@@H](F)C[C@@H]1[C@@H]2[C@@H](O)C[C@@]2(C)[C@H]1CC[C@]2(O)C(=O)CO [FLUPREDNISOLONE] | 1.9 ×10⁻⁶ cm/s
Nc1c(O)cccc1C(=O)CC(N)C(=O)O (centres unmarked) [3-HYDROXYKYNURENINE] | < 1 ×10⁻⁶ cm/s
CN1c2c(nc(N)[nH]c2=O)NC[C@@H]1CNc1ccc(C(=O)N[C@@H](CCC(=O)O)C(=O)O)cc1 [LEVOMEFOLATE] | < 1 ×10⁻⁶ cm/s
CC1=C(C)C(=O)C(CC[C@](C)(O)CCC[C@H](C)CCC[C@H](C)CCCC(C)C)=C(C)C1=O [.ALPHA.-TOCOPHERYLQUINONE] | 7.2 ×10⁻⁶ cm/s

Same assay, conditions: PAMPA, PAMPA-BBB Pe(10^-6 cm/sec), Table S3: compounds exhibiting low PAMPA-BBB permeability

SMILES | Papp
NCCC[C@H](N)CC(=O)N[C@H]1CNC(=O)[C@H]([C@H]2C[C@H](O)NC(N)=N2)NC(=O)/C(=C/NC(N)=O)NC(=O)[C@H](CO)NC(=O)[C@H](CO)NC1=O [VIOMYCIN SULFATE] (β3hOrn-[Dap]SS[ΔAla(Z-3-ureido)][X1]; lactam 1-C) | < 1 ×10⁻⁶ cm/s
CC(=O)O[C@H]1C(=O)[C@@]2(C)[C@H]([C@H](OC(=O)c3ccccc3)[C@]3(O)C[C@H](O)C(C)=C1C3(C)C)[C@]1(OC(C)=O)CO[C@@H]1C[C@@H]2O [BACCATIN III] | < 1 ×10⁻⁶ cm/s
Oc1ccc(/C=C/c2cc(O)cc(O)c2)cc1 [RESVERATROL] | 1.8 ×10⁻⁶ cm/s
O=c1[nH]c(=O)c2ncn([C@@H]3O[C@H](CO)[C@@H](O)[C@H]3O)c2[nH]1 [XANTHOSINE] | < 1 ×10⁻⁶ cm/s
CCC/C=C/C/C=C/C=C/C=N/NN=O [TRIACSIN C] | 8.1 ×10⁻⁶ cm/s
O=c1ccn([C@@H]2O[C@H](COP(=O)(O)O)[C@@H](O)[C@H]2O)c(=O)[nH]1 [URIDINE PHOSPHATE] | < 1 ×10⁻⁶ cm/s
O=C(O)c1ccc(O)c(O)c1 [PROT[…]] | < 1 ×10⁻⁶ cm/s
O=C(O)/C=C/C=C/c1ccc2c(c1)OCO2 [PIPERIC ACID] | < 1 ×10⁻⁶ cm/s
COc1ccc2[nH]c3c(c2c1)CCNC3 [Pinoline] | 2.5 ×10⁻⁶ cm/s
COc1cc(C)c2c(c1C=O)Oc1c(c(C)c(O)c3c1C(O)OC3=O)OC2=O (centres unmarked) [STICTIC ACID] | < 1 ×10⁻⁶ cm/s
Cc1coc2c1C(=O)C(=O)c1c-2ccc2c(C)cccc12 [TANSHINONE I] | 6.8 ×10⁻⁶ cm/s
CC1=C[C@H]2[C@@]3(O)[C@H](C)[C@@H](O)[C@]4(O)[C@H]([C@@H]3C=C(CO)C[C@]2(O)C1=O)C4(C)C [PHORBOL] | < 1 ×10⁻⁶ cm/s
Nc1ncnc2c1ncn2[C@@H]1O[C@H](CO)C[C@H]1O [CORDYCEPIN] | < 1 ×10⁻⁶ cm/s
C[C@H]1O[C@@H](Oc2c(-c3ccc(O)c(O)c3)oc3cc(O)cc(O)c3c2=O)[C@H](O)[C@H](O)[C@H]1O [QUERCITROSIDE] | < 1 ×10⁻⁶ cm/s
NCCCS(=O)(=O)O [TR[…]] | 1.7 ×10⁻⁶ cm/s
CC1CC(C)C(=O)C1=O (centres unmarked) | 2.7 ×10⁻⁶ cm/s
COc1cc(C(=O)O)ccc1O [VANILLIC ACID] | < 1 ×10⁻⁶ cm/s
COC(=O)C1=CO[C@@H](O)[C@@H]2C(CO)=CC[C@H]12 [GENIPIN] | < 1 ×10⁻⁶ cm/s
O=C1c2c(O)cccc2[C@H]([C@@H]2O[C@H](CO)[C@@H](O)[C@H](O)[C@H]2O)c2cc(CO)cc(O)c21 [ALOIN A] | 5.4 ×10⁻⁶ cm/s
Nc1nc(Cl)nc2c1ncn2[C@@H]1O[C@H](CO)C(O)[C@H]1O (some centres unmarked) [2-CHLOROADENOSINE] | < 1 ×10⁻⁶ cm/s
[O-][n+]1ccccc1SSc1cccc[n+]1[O-] [[…]] | < 1 ×10⁻⁶ cm/s

SMILES | Papp
O=c1c(O)c(-c2ccc(O)c(O)c2)oc2cc(O)cc(O)c12 [QUERCETIN] | < 1 ×10⁻⁶ cm/s
CC(=O)NCCc1c[nH]c2ccc(O)cc12 [NORMELATONIN] | < 1 ×10⁻⁶ cm/s
COc1cc(-c2coc3cc(O[C@@H]4O[C@H](CO)[C@@H](O)[C@H](O)[C@H]4O)c(OC)c(O)c3c2=O)cc(O)c1OC [IRIDIN] | 1.3 ×10⁻⁶ cm/s
COC1=C[C@@H]2C3=C([C@@H]2C1=O)[C@@H](NC(C)=O)CCc1cc(OC)c(OC)c(OC)c13 [β-Lumicolchicine] | 3.6 ×10⁻⁶ cm/s
C[C@H](O)C(=O)C1=Nc2c(nc(N)[nH]c2=O)NC1 [SEPIAPTERIN] | 1.6 ×10⁻⁶ cm/s
NCCc1c[nH]c2ccccc12 [TRYPTAMINE HYDROCHLORIDE] | < 1 ×10⁻⁶ cm/s
CNCCc1ccc(O)c(O)c1 [DEOXYEPINEPHRINE HYDROCHLORIDE] | < 1 ×10⁻⁶ cm/s
COc1cc2c(CCNC(C)=O)c[nH]c2cc1O [6-HYDROXYMELATONIN] | 2.8 ×10⁻⁶ cm/s
Oc1cc(O)c2cc(O)c(-c3cc(O)c(O)c(O)c3)[o+]c2c1 [D[…]] | 4.7 ×10⁻⁶ cm/s
C[C@@H]1C/C=C/C=C/C=C/C=C/[C@H](O[C@@H]2O[C@H](C)[C@@H](O)[C@H](N)[C@@H]2O)C[C@@H]2O[C@](O)(C[C@@H](O)C[C@H]3O[C@@H]3/C=C/C(=O)O1)C[C@H](O)[C@H]2C(=O)O [NATAMYCIN] | 5.7 ×10⁻⁶ cm/s
CCC(=O)c1c(O)cc(O)cc1O [FLOPROPIONE] | 2.8 ×10⁻⁶ cm/s
O=C(/C=C/c1ccc(O)c(O)c1)c1ccc(O[C@@H]2O[C@H](CO)[C@@H](O)[C@H](O)[C@H]2O)c(O)c1O [MAREIN¦] | 1.6 ×10⁻⁶ cm/s
N[C@H](C(=O)O)c1cc(O)cc(O)c1 [DIHYDROXYPHENYLGLYCINE] | < 1 ×10⁻⁶ cm/s
O=C1O/C(=C\c2ccc(O)cc2)C(O)=C1c1ccc(O)cc1 [[…] B1] | < 1 ×10⁻⁶ cm/s
O=C(OC[C@H]1O[C@@H](OC(=O)c2cc(O)c(O)c(O)c2)[C@H](OC(=O)c2cc(O)c(O)c(O)c2)[C@@H](OC(=O)c2cc(O)c(O)c(O)c2)[C@@H]1OC(=O)c1cc(O)c(O)c(O)c1)c1cc(O)c(O)c(O)c1 [PENTAGALLOYLGLUCOSE] | 3.2 ×10⁻⁶ cm/s
COc1c2c(cc3c1OCO3)CC[N+](C)=C2 [COTARNINIUM] | < 1 ×10⁻⁶ cm/s
Cc1cccc2c3c(ccc12)C1=C(C(=O)C3=O)[C@@H](C)CO1 [DIHYDROTANSHINONE I] | 3.7 ×10⁻⁶ cm/s
CNCC(O)c1ccc(O)c(OC)c1 (centres unmarked) [METANEPHRINE HYDROCHLORIDE] | < 1 ×10⁻⁶ cm/s
C[C@@H]1CC[C@]2(C)CC[C@]3(C)C(=CC(=O)C4[C@@]5(C)CC[C@@H](O)[C@](C)(C(=O)O)C5CC[C@]43C)C2[C@H]1C (some centres unmarked) [KETO-B-BOSWELLIC ACID] | < 1 ×10⁻⁶ cm/s
O=C(O)/C=C/c1ccc2c(c1)OCO2 [3,4-METHYLENEDIOXYCINNAMIC ACID] | < 1 ×10⁻⁶ cm/s
COc1ccc2cc3[n+](cc2c1OC)CCc1cc2c(cc1-3)OCO2 [BERBERINE HYDROCHLORIDE] | < 1 ×10⁻⁶ cm/s

Same assay, conditions: PAMPA, PAMPA-BBB Pe, Table S2: compounds exhibiting moderate to high PAMPA-BBB permeability

SMILES | Papp
S=c1ccss1 [1,2-DITHIOLE-3-THIONE] | 98 ×10⁻⁶ cm/s
COc1ccc2c(c[n+](C)c3c4cc5c(cc4ccc23)OCO5)c1OC [CHELE[…]] | 95 ×10⁻⁶ cm/s
COC(=O)c1ccccc1OC [METHYL O-ANISATE] | 120 ×10⁻⁶ cm/s
COc1cc(C)cc(O)c1 [3-HYDROXY-5-METHOXYTOLUENE] | 50 ×10⁻⁶ cm/s
C=C[C@H]1CN2CCc3c([nH]c4ccccc34)[C@H]2C[C@@H]1/C(=C\OC)C(=O)OC [HIRSUTEINE] | 118 ×10⁻⁶ cm/s
COC1=C[C@]23CCN(C)[C@H](Cc4ccc(OC)c(O)c42)C3=CC1=O [SALUTARIDINE] | 11 ×10⁻⁶ cm/s
COc1ccc(C(=O)O[C@H]2CC[C@@]3(C)[C@@H]4CC[C@H]5[C@]6(O)C[C@H](O)[C@@]7(O)[C@@H](CN8C[C@@H](C)CC[C@H]8[C@@]7(C)O)[C@]6(O)C[C@@]53O[C@]24O)cc1OC [VERATRIDINE] | 17 ×10⁻⁶ cm/s
CC(=O)c1c(O)cccc1O [2-ACETYLRESORCINOL] | 45 ×10⁻⁶ cm/s
COc1cc(OC)c2ccc(=O)oc2c1 [LIMETTIN] | 105 ×10⁻⁶ cm/s
CC1=C[C@H](O)CC(C)(C)[C@H]1/C=C/C(C)=C/C=C/C(C)=C/C=C/C=C(C)/C=C/C=C(C)/C=C/C1=C(C)C[C@@H](O)CC1(C)C [XANTOFYL] | 28 ×10⁻⁶ cm/s
COc1cc2c(cc1O)C[C@H]1c3c(cc(OC)c(O)c3-2)CCN1C [ISOBOLDINE] | 35 ×10⁻⁶ cm/s
C=C[C@H]1CN2CC[C@@]3(C(=O)Nc4ccccc43)[C@@H]2C[C@@H]1/C(=C\OC)C(=O)OC [ISOCORYNOXEINE] | 37 ×10⁻⁶ cm/s
COc1cc(OC)c(OC)cc1C=O [GAZARIN] | 64 ×10⁻⁶ cm/s
COC1=CC(=O)O[C@@H](CCc2ccccc2)C1 [DIHYDROKAWAIN] | 82 ×10⁻⁶ cm/s
COc1cc2c(cc1O)C[C@H]1c3c(cc(O)c(OC)c3-2)CCN1C [BOLDINE] | 49 ×10⁻⁶ cm/s
CC(C)c1cccc(O)c1 [M-ISOPROPYLPHENOL] | 149 ×10⁻⁶ cm/s
CCCCc1ccc(O)cc1 [4-BUTYLPHENOL] | 116 ×10⁻⁶ cm/s
COc1ccc(-c2cc(=O)c3c(O)cc(O)c(-c4cc(-c5cc(=O)c6c(O)cc(OC)cc6o5)ccc4OC)c3o2)cc1 [SCIADOPITYSIN] | 20 ×10⁻⁶ cm/s
COc1cc(C)c(C(=O)Oc2cc(C)c(C(=O)O)c(O)c2C)c(OC)c1C [Diffractaic acid] | 15 ×10⁻⁶ cm/s
CCC12C=CCN3CC[C@@]4(c5ccc(OC)cc5N(C)[C@H]4[C@@](O)(C(=O)OC)[C@@H]1OC(C)=O)[C@@H]32 (some centres unmarked) [VINDOLINE] | 92 ×10⁻⁶ cm/s
C=C(C)[C@]12C[C@@H](C)[C@@]34O[C@](Cc5ccccc5)(O[C@@H]1[C@@H]3C=C(COC(=O)Cc1ccc(O)c(OC)c1)C[C@]1(O)C(=O)C(C)=C[C@@H]41)O2 [RESINIFERATOXIN] | 38 ×10⁻⁶ cm/s
COc1ccc(COC(C)=O)cc1 [P-METHOXYBENZYL ACETATE] | 172 ×10⁻⁶ cm/s
COc1cccc(C=O)c1OC | 107 ×10⁻⁶ cm/s
COC1=CC(=O)O[C@@H](/C=C/c2ccccc2)C1 [KAWAIN] | 114 ×10⁻⁶ cm/s
COC(=O)c1ccc(OC)cc1 [METHYL ANISATE] | 103 ×10⁻⁶ cm/s
O=C1NC(=O)C(c2c[nH]c3ccccc23)=C1c1c[nH]c2ccccc12 [BISINDOLYLMALEIMIDE] | > 654 ×10⁻⁶ cm/s
CCCCCCCCC(=O)NCc1ccc(O)c(OC)c1 [NONIVAMIDE] | 125 ×10⁻⁶ cm/s
